Consider five compounds from patent US20220249599A1, “TREATMENT OF IMPLANTS WITH ENGINEERED ANTIMICROBIAL AMPHIPHILIC PEPTIDES” (priority 2018, published 2022).

For test [1], the system named is Acinetobacter baumannii ATCC BAA-1797 (MDR). Kind of test: microbe, parasite or virus in culture. The test is classed as cell-based. As to the method: (§1) Each peptide was formulated in PBS buffer prior to testing. Peptides of SEQ ID NO:5 and SEQ ID NO:8 were brought up in 100% DMSO with 0.002% polysorbate-80 at 1.28 mg/mL (40× the highest final test concentration of 32 mcg/mL). Final test concentration of DMSO was 2.5% in the assay at the first dilution for those two compounds.
(§2) Mueller Hinton II broth (MHB II; BD; Lot Nos. 6258541 and 7143896) was used for MIC testing of aerobic organisms. 0.002% polysorbate 80 (P80) was added to the test medium.
(§3) MIC values were determined using a broth microdilution procedure described by CLSI (1, 3). Automated liquid handlers (Multidrop 384, Labsystems, Helsinki, Finland; Biomek 2000 and Biomek FX, Beckman Coulter, Fullerton Calif.) were used to conduct serial dilutions and liquid transfers.
(§4) To prepare the drug mother plates, which would provide the serial peptide dilutions for the replicate daughter plates, the wells of columns 2-12 of standard 96-well microdilution plates (Costar 3795) were filled with 150 µl of the designated diluent for each row of peptide.
(§5) The test articles and comparator compounds ([…] at 40× the highest concentration to be tested) were dispensed into the appropriate wells in column 1. The Biomek 2000 was then used to make 2-fold serial dilutions in the mother plates from column 1 through column 11. The wells of Column 12 contained no drug and served as the organism growth control wells for the assay.
(§6) The daughter plates were loaded with 185 μL per well of MHB II using the Multidrop 384. The daughter plates were completed on the Biomek FX instrument which transferred 5 uL of peptide solution from each well of a mother plate to the corresponding well of each daughter plate in a single step. A standardized inoculum of each test organism was prepared per CLSI methods. The inoculum for each organism was dispensed into sterile reservoirs divided by length (Beckman Coulter), and the Biomek 2000 was used to inoculate the plates. Daughter plates were placed on the Biomek 2000 work surface in reverse orientation so that inoculation took place from low to high drug concentration.
(§7) Plates were stacked 3-4 high, covered with a lid on the top plate, placed in plastic bags, and incubated at 35° C. for 16 to 20 hrs. Following incubation, the microplates were removed from the incubator and viewed from the bottom using a plate viewer. […] The MIC was read and recorded as the lowest concentration of peptide that inhibited visible growth of the organism.

Test [2] relates to Enterococcus faecalis ATCC 29212 (VSE; QC). It counts as cell-based. The conditions noted are these: ATCC 29212. As to the method: as §1, §2, §3, §4, §5, §6, §7
Test [3] deals with Streptococcus pneumoniae ATCC 49619 (QC). The test is classed as cell-based. The following applies: ATCC 49619. As to the method: as §1, §2, §3, §4, §5, §6, §7
For test [4], the system named is Streptococcus pyogenes ATCC 49399. The test is classed as cell-based. The following applies: ATCC 49399. As to the method: as §1, §2, §3, §4, §5, §6, §7
Test [5] has as its system Escherichia coli ATCC 35218 (ESBL). It counts as cell-based. The conditions noted are these: ATCC 35218. As to the method: as §1, §2, §3, §4, §5, §6, §7
The subject of test [6] is Staphylococcus aureus ATCC 29213 (MSSA; QC). The test is classed as cell-based. The following applies: ATCC 29213. Here is the method: as §1, §2, §3, §4, §5, §6, §7
The test system of test [7] is Escherichia coli ATCC BAA-2471 (NDM-1). The test is classed as cell-based. The conditions noted are these: ATCC BAA-2471. As to the method:
as §1, §2, §3, §4, §5, §6, §7

Test [8] deals with Enterococcus faecalis ATCC 700802 (V583 VRE). The test is classed as cell-based. The conditions noted are these: ATCC 700802. Here is the method: as §1, §2, §3, §4, §5, §6, §7
In test [9] the test system is Pseudomonas aeruginosa ATCC BAA-2109 (MDR). The test is classed as cell-based. The following applies: ATCC BAA-2109. Here is the method: as §1, §2, §3, §4, §5, §6, §7
In test [10] the test system is Klebsiella pneumoniae ATCC BAA-1705 (KPC). It counts as cell-based. The following applies: ATCC BAA-1705. As to the method:
as §1, §2, §3, §4, §5, §6, §7

Test [11] deals with Pseudomonas aeruginosa ATCC 27853 (non-MDR; QC). The test is classed as cell-based. The conditions noted are these: ATCC 27853. As to the method:
as §1, §2, §3, §4, §5, §6, §7

In test [12] the test system is Enterococcus faecium ATCC 51559 (VRE). It counts as cell-based. The following applies: ATCC 51559. Here is the method: as §1, §2, §3, §4, §5, §6, §7
For test [13], the system named is Staphylococcus aureus NRS382 (USA100; HA-MRSA). It counts as cell-based. The conditions noted are these: USA100. As to the method: as §1, §2, §3, §4, §5, §6, §7
Test [14] deals with Escherichia coli ATCC 25922 (QC). The test is classed as cell-based. The conditions noted are these: ATCC 25922. As to the method: as §1, §2, §3, §4, §5, §6, §7
Test [15] relates to Acinetobacter baumannii ATCC 19606 (non-MDR). The test is classed as cell-based. The conditions noted are these: ATCC 19606. As to the method:
as §1, §2, §3, §4, §5, §6, §7

Test [16] concerns Staphylococcus aureus ATCC 43300 (MRSA). It counts as cell-based. The following applies: ATCC 43300. Here is the method: as §1, §2, §3, §4, §5, §6, §7
Test [17] concerns Staphylococcus aureus (n = 104). The experiment in a line: microbe, parasite or virus in culture. The test is classed as cell-based. The following applies: Staphylococcus aureus (n = 104); for % R (isolates resistant): CLSI breakpoints. Here is the method: (§8) The clinical isolates were obtained from USA hospitals. […] Plates were incubated at 35° C. overnight.
Test [18] concerns Enterobacter spp. (n = 102). It counts as cell-based, Enterobacter aerogenes and E. cloacae. The following applies: Enterobacter spp. (n = 102), CLSI breakpoints, colistin EUCAST. Here is the method:
as §8

For test [19], the system named is Acinetobacter spp. (n = 104). It counts as cell-based. The following applies: Acinetobacter spp. (n = 104), CLSI breakpoints. Here is the method: as §8
Test [20] deals with Escherichia coli (n = 101). The test is classed as cell-based. The conditions noted are these: Escherichia coli (n = 101), CLSI breakpoints, colistin EUCAST. Here is the method: as §8
Test [21] has as its system Pseudomonas aeruginosa (n = 109). It counts as cell-based. The following applies: Pseudomonas aeruginosa (n = 109), CLSI breakpoints. Here is the method: as §8
Test [22] deals with Klebsiella pneumoniae (n = 101). It counts as cell-based. Here is the method: as §8

Values after ≈ are worked out from the molar mass of the structure shown. Read-outs that look alike come from different tables or passages of the source. Ends that are not written are not given here. Where only a bound is given, the exact number is not on record here.

As for IRRRIRRIRRRIRRIRRRIRR [SEQ ID NO: 3], the MIC came out at 16 µg/mL in [1] (ATCC BAA-1797); 32 µg/mL in [2]; 32 µg/mL in test [3]; 16 µg/mL in test [4]; 4 µg/mL in test [5]; 8 µg/mL in test [6]. The MIC in test [7] is 4 µg/mL; in test [8], more than 32 µg/mL; in test [9] it was 2 µg/mL; in test [10], 32 µg/mL; in test [11], 4 µg/mL; in test [12] it was 4 µg/mL. Besides, the MIC in test [13] came to 8 µg/mL; in [14], 4 µg/mL; in test [15], 8 µg/mL; in [16], 8 µg/mL.
With VVRVVRRVVRVVRR [SEQ ID NO: 7], the MIC was more than 32 µg/mL in [1] (ATCC BAA-1797); more than 32 µg/mL in [2]; more than 32 µg/mL in test [3]; 16 µg/mL in test [4]; 32 µg/mL in test [5]; more than 32 µg/mL in test [6]. The MIC in test [7] is 16 µg/mL; in test [8] it was more than 32 µg/mL; in [9], more than 32 µg/mL; in test [10], more than 32 µg/mL; in test [11], more than 32 µg/mL; in test [12], 16 µg/mL. Further, the MIC in [13], in [14], in test [15] and in [16] was more than 32 µg/mL in each case.
As to VWRWVRRVWRWVRRVWRWVRR [SEQ ID NO: 5], the MIC in test [1] (ATCC BAA-1797) was 32 µg/mL; in [2], 16 µg/mL; in test [3], 32 µg/mL; in [4] it was 32 µg/mL; in [5], 16 µg/mL; in test [6] it was 16 µg/mL. For the same compound, the MIC is 32 µg/mL in [7]; 16 µg/mL in test [8]; 16 µg/mL in [9]; more than 32 µg/mL in test [10]; more than 32 µg/mL in [11]; 8 µg/mL in [12]. Also, the MIC in test [13] stood at 8 µg/mL; in [14], 16 µg/mL; in test [15], 16 µg/mL; in test [16] it was 8 µg/mL.
As for IRRRRRRIRRRRRR [SEQ ID NO: 2], the MIC is more than 32 µg/mL in test [1] (ATCC BAA-1797); more than 32 µg/mL in test [2]; more than 32 µg/mL in test [3]; 32 µg/mL in [4]; 16 µg/mL in test [5]; 16 µg/mL in [6]. The MIC in [7] was 32 µg/mL; in [8], more than 32 µg/mL; in [9], 8 µg/mL; in test [10], more than 32 µg/mL; in [11] it was more than 32 µg/mL; in [12] it was 16 µg/mL. For the same compound, the MIC was found to be 8 µg/mL in [13], 16 µg/mL in test [14], 32 µg/mL in test [15] and 16 µg/mL in test [16].
For `C[C@H]1COc2c(N3CCN(C)CC3)c(F)cc3c(=O)c(C(=O)O)cn1c23` [Levofloxacin], the MIC in test [1] (ATCCBAA1797, Acinetobacter baumannii ATCC BAA-1797 (MDR), read-out: MIC) came out at 4 µg/mL (≈ 11.1 µM). Moreover, the MIC90 in [17] is more than 8 µg/mL. Further, the “% R (isolates resistant)” value in [17] was 82.7%; in [17] (listed as levofloxacin), “Over 80%”; in test [18], 4.9%; in [19], 66.3%; in test [20], 46.5%; in test [20] (listed as levofloxacin) it was approximately 50%. The “% R (isolates resistant)” value is recorded as 21.1% in test [21]; “over 60%” in test [22]; 67.3% in [22] (Klebsiella pneumoniae (n = 101), CLSI breakpoints, colistin EUCAST).
